Measured values taken from US20240207263A1, “SELECTIVE MODULATORS OF ATAXIA TELA[…] (ATM) KINASE AND USES THEREOF” (priority 2021, published 2024).
Like-named read-outs stand apart in the source and are kept apart here.

What was measured:
[1] = biological target: ATM (Homo sapiens (Human), UniProt Q13315); test: biochemical; assay type: biochemical; conditions: read-out: ATM IC50
Excerpt: Assay a): ATM Biochemical Potency
Data was collected by Caliper.

[2] = test system: phosp-KAP1 in MCF-7 cells; test: phosp-KAP1 MCF-7 cellular potency assay (Assay f); assay type: cell-based; conditions: Homo sapiens
Procedure: Assay f): phosp-KAP1 MCF-7 Cellular Potency
MCF-7 cells were seeded to a 384-well cell-culture plate, 25 μl/well which were incubated at 37° C. and 5% CO2 for 24 hr. Test compounds were added to the 384-well plates. Etoposide at final concentration of 100 μM was then added to each well except Vehicle control wells, which were incubated at 37° C. and 5% CO2 for 1 hour. After medium removal, cells were fixed by the addition of 25 μl/well of 8% paraformaldehyde in PBSA and incubated for 20 minutes at room temperature. After the plates were rinsed 3 times with PBSA, 50 ul permeabilization buffer (0.1% Triton X-100 in PBS) was added and the plates were incubated for 20 minutes at room temperature. After the plates were rinsed with PBSA, block the cells by adding 50 μl of Odyssey Blocking Buffer in 384-well plate and then incubate for 1.5 hours at room temperature. Remove blocking buffer by Plate washer (BioTek ELx405 select CW). […] The plates were rinsed 5 times with PBST (0.1% Tween-20 in PBS).
• 1) Fluorescence intensity (FI) was detected for each well. • 2) % inhibition is calculated as follow:
[formula] • FIpositive: The average FI for the positive controls across the plate. • FIvehicle: The average FI for negative controls across the plate. • 3) Calculate IC50 and Plot effect-dose curve of compounds: • Calculate IC50 by fitting % inhibition values and log of compound concentrations to nonlinear regression (dose response−variable slope) with Graphpad prism 6.0.
Y=Bottom+(Top−Bottom)/(1+10^((Log IC50−X)*HillSlope)) • X: log of compounds concentration; Y: % inhibition

[3] = test system: FaDu xenograft; test: FaDu xenograft model, radiation combination (Assay i); assay type: in vivo, mouse; conditions: for Inhibition (% TGI) Combo: combo with IR
Procedure: Assay i): FaDu Xenograft Model
Cell culture: FaDu tumor cells were cultured in an EMEM medium containing inactivated 10% fetal bovine serum, 100 U/ml penicillin and 100 μg/ml streptomycin in a 37° C., 5% CO2 incubator.
Inoculation and grouping: Xenografts were established by implantation of 100 μl of Fadu tumor cell suspension (5×10^6 cells/mouse) subcutaneously into the right flank of female immune-compromised BALB/c nude mice at least 6 weeks of age. Tumours were measured in two dimensions with calipers and the tumour volume was calculated using the following formula: tumor volume=(length×width^2)×0.5. When the average tumor volume reached 100 to 150 mm^3, tumour-bearing mice were randomized into treatment groups.
Treatment and tumor assessment: Animals received 3 to 6 cycles of treatment with compounds combined with radiation therapy. Each cycle included 5 consecutive treatment day plus 2 days' rest. Ionizing radiation was administered using a fractionated schedule of 2 Gy per day administered over 5 consecutive days (total radiation dose=10 Gy/cycle). Compound was given orally 10 minutes before irradiation. The tumour volume and body weight of the mice were measured twice weekly.
Statistical Analysis: The One-Way ANOVA test was used for statistical analysis of tumor volume between groups, and p<0.05 was considered as a significant difference.

[4] = biological target: ATM (phospho-ATM Ser1981) in SN38 treated HT-29 cells (Homo sapiens (Human), UniProt Q13315); test: cell-based
ATM (phospho-ATM Ser1981) in SN38 treated HT-29 cells, sequence (Q13315 whole entry, looked up): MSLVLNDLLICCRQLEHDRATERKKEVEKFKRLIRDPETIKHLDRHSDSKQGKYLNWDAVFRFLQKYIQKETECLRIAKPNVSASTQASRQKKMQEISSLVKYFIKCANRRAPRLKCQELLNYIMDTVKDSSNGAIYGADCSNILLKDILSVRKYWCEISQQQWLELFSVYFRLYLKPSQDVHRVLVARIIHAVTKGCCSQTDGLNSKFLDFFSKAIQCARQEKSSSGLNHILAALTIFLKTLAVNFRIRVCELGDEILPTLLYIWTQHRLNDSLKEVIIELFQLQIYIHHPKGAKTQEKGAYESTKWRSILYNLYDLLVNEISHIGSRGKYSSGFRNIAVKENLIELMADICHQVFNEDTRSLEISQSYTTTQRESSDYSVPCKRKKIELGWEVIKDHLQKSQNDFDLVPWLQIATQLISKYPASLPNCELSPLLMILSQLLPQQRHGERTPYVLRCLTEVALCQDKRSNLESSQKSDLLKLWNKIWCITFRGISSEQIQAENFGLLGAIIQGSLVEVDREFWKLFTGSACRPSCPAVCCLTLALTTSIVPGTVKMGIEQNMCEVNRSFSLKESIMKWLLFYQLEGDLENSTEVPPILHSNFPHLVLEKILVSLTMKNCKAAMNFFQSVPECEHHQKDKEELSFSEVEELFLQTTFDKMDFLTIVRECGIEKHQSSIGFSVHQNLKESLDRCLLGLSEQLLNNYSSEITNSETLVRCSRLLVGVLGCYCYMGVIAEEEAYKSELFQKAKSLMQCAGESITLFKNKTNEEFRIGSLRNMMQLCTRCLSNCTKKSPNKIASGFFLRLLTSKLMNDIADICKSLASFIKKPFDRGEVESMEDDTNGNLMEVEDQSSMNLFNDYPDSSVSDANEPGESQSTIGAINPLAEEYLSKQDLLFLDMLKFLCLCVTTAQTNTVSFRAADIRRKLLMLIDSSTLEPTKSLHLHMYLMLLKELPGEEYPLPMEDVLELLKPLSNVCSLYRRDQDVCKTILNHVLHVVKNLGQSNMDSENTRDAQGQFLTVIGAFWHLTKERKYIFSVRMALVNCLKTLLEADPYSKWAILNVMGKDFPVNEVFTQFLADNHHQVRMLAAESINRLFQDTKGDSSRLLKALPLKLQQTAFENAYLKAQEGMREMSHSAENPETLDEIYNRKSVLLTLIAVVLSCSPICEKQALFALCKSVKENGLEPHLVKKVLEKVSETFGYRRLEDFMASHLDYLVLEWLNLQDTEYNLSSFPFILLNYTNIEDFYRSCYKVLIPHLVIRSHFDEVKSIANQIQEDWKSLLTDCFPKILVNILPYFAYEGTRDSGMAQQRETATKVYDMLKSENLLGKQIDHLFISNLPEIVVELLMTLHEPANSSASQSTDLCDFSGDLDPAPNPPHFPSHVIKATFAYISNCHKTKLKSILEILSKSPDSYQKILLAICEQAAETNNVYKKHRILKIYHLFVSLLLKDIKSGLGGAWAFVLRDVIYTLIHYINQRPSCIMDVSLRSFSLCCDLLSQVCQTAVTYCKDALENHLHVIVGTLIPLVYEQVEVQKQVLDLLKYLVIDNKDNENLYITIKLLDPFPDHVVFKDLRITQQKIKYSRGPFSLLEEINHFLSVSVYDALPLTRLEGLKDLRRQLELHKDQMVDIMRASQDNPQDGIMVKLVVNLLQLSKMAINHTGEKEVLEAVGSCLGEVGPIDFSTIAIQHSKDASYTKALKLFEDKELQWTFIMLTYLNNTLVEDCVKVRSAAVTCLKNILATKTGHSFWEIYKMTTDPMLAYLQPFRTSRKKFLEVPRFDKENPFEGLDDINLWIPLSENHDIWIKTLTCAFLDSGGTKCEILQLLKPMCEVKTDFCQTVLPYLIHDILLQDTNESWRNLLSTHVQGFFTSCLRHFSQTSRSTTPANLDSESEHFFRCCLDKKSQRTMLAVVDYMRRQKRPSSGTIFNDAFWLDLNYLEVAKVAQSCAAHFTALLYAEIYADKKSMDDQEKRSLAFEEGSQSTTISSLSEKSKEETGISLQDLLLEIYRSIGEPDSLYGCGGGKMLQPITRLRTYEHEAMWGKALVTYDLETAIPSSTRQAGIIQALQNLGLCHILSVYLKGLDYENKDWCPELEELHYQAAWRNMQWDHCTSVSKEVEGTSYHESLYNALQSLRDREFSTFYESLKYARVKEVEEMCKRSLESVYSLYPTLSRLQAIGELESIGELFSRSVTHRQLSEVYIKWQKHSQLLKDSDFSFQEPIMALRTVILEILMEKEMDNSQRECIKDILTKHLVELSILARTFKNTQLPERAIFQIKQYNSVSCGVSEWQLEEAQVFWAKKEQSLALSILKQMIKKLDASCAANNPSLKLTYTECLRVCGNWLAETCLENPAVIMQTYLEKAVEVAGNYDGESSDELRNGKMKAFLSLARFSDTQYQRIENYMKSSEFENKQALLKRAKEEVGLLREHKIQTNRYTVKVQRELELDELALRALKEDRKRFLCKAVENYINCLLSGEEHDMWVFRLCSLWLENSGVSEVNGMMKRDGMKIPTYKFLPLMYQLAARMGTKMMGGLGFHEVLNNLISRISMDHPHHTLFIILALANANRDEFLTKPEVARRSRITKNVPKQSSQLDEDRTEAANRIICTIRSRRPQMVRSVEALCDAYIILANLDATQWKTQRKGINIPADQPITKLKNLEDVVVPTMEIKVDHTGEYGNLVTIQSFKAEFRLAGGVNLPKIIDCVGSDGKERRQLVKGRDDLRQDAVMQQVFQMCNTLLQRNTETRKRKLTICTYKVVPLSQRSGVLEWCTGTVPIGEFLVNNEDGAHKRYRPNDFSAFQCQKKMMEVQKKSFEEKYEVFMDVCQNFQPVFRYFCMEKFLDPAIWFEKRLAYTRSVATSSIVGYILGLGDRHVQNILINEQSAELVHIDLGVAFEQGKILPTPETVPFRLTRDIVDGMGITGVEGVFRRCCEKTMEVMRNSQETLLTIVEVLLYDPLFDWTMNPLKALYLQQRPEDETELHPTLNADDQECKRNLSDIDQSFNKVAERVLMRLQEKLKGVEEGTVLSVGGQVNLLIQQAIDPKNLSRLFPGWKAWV
Procedure: Assay g): ATM SN-38 HT-29 Cellular Potency
SN38 causes single strand DNA breaks (SSBs) which are converted to double strand breaks (DSBs) during replication. ATM plays role of repairing DSBs. Inhibition of ATM was evaluated in SN38 treated HT-29 cells (ATCC, Cat #HTB-38) by high-Content Imaging System
The graphical views were then generated using Prism 7.0 (Graphpad).

[5] = biological target: ATR (Homo sapiens (Human), UniProt Q13535); test: ATR biochemical potency assay (Assay b)
Procedure: Assay b): ATR Biochemical Potency
The plate was incubated at room temperature for 10 minutes. 2× peptide solutions were prepared with FAM-labeled peptide and ATP in the 1× kinase base buffer. […] 40 μl of stop buffer was added to stop reaction. Data were collected by Caliper.

[6] = biological target: mTOR (Homo sapiens (Human), UniProt P42345); test: mTOR biochemical potency assay (Assay d)
Procedure: Assay d): mTOR Biochemical Potency
Solution of mTOR enzymes (Millipore, Cat. No. 14-770) was prepared in 1× kinase buffer at 4-fold of the final concentration (final concentration: 6 nM) in the assay. 2.5 μl of kinase solution was added to each well of the 384-well assay plate, which contains 2.5 μl of compounds with serially diluted concentration. 2× substrate solution was prepared with ULight-4E-BP1 (Thr37/46) Peptide (PE, Cat. No. TRF0128-M) and ATP in 1× kinase reaction buffer at 2-fold of the final concentration of each reagent in the assay. 5 μl of substrate solution was added to each well of the assay plate to start reaction. The assay plate was incubated at room temperature for 30 minutes. Detection solution of kinase quench buffer (EDTA) and Eu-anti-phospho-4E-BP1 antibody (Thr37/46) (PE, Cat. No. TRF0216-M) were prepared at 2-fold the desired final concentrations of each reagent in Lance detection buffer. 10 μl of detection solution buffer was added to each well of the assay plate.

[7] = biological target: PI3Kα (p110α/p85a) (Homo sapiens (Human), UniProt P42336); test: PI3K biochemical potency assay (Assay c), PI3Kα
Procedure: Assay c): PI3K Biochemical Potency
(§1) 2.5 μl of kinase solution was added to each well of the 384-well assay plate, which contains 2.5 μl of compounds with serially diluted concentration. 2× substrate solution was prepared with PIP2 substrate and ATP in 1× kinase reaction buffer at 2-fold of the final concentration of each reagent in the assay. 5 μl of substrate solution was added to each well of the assay plate to start reaction. The assay plate was incubated at room temperature for 1 hour. 5 μl reaction mix was transferred to a new 384 well plate. 5 μl of ADP-Glo reagent (Promega, Cat. No. v9102/3) was added to each well of the new assay plate to stop the reaction. The plate was shaken slowly and equilibrated for 40 minutes. 10 μl kinase detection reagents were added to each well, which was equilibrated for 60 minutes before read on a plate reader (Envision) for luminescence.

[8] = biological target: PIK3Cδ (Homo sapiens (Human), UniProt O00329); test: PI3K biochemical potency assay (Assay c), PIK3Cδ
PIK3Cδ, sequence (O00329 whole entry, looked up): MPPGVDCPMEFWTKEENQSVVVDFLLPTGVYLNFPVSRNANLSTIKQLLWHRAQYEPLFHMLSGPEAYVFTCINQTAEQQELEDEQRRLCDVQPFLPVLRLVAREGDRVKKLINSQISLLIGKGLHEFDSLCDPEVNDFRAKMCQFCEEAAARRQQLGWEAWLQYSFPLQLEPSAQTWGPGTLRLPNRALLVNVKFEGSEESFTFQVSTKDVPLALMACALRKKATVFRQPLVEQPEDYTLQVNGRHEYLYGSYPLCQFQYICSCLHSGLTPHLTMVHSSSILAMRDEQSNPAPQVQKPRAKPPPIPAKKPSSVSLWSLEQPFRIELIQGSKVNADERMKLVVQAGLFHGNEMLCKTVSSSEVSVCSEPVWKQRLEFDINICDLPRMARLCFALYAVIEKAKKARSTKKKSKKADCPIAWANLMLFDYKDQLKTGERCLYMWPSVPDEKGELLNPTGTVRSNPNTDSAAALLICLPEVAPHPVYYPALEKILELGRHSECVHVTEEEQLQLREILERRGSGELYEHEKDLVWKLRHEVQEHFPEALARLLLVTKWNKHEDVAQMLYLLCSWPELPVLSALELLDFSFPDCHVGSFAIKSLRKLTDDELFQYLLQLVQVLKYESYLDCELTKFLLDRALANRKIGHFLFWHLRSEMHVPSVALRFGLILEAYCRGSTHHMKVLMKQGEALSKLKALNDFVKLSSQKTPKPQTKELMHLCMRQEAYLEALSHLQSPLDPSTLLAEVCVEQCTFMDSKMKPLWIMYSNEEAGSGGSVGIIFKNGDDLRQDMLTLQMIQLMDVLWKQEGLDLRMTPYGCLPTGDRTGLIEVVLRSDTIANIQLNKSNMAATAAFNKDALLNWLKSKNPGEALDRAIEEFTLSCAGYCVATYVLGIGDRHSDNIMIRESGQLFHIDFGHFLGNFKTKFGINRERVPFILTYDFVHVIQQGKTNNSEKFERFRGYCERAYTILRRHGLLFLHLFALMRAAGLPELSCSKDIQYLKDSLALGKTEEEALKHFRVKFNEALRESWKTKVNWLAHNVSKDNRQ
PIK3Cδ, sequence (P27986 whole entry partner, looked up): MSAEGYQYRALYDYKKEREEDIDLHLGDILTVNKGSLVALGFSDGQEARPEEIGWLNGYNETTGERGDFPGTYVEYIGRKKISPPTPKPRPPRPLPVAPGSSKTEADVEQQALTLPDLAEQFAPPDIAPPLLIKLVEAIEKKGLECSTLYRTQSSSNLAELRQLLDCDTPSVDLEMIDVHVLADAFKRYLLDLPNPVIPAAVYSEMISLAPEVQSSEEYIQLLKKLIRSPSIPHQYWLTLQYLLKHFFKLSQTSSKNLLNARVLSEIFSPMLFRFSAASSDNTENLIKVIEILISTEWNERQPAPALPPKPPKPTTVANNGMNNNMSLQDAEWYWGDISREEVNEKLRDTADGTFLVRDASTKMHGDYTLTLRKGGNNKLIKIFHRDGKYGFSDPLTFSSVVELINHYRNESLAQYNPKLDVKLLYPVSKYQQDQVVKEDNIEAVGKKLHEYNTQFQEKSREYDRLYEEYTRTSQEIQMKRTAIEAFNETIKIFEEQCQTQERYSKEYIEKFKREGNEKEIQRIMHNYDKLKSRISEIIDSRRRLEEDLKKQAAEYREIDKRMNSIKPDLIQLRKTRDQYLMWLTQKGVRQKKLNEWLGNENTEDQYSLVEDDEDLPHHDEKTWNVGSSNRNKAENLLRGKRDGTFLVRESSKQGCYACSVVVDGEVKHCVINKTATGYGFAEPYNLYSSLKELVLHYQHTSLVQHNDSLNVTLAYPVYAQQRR
Procedure: Assay c): PI3K Biochemical Potency
as §1

[9] = biological target: PIK3Cβ (p110β) (Homo sapiens (Human), UniProt P42338); test: PI3K biochemical potency assay (Assay c), PIK3Cβ
Procedure: Assay c): PI3K Biochemical Potency
as §1

[10] = biological target: PIK3Cγ (pp110γ) (Homo sapiens (Human), UniProt P48736); test: PI3K biochemical potency assay (Assay c), PIK3Cγ
Procedure: Assay c): PI3K Biochemical Potency
as §1

[11] = MCF7, read-out: Etoposide MCF-7 cellular IC50
[12] = total IR 30 Gy (3 cycles), 50 mg/kg PO. TID
[13] = total IR 30 Gy (3 cycles), 150 mg/kg PO. TID
[14] = MCF7, MCF-7 cells, etoposide, read-out: Etoposide MCF-7 cellular IC50
[15] = HT-29 cells, SN-38, read-out: SN-38 HT-29 cellular IC50

ATM, sequence (Q13315 whole entry, looked up): as the sequence (Q13315 whole entry, looked up) above

## CC(C)n1c(=O)n(C)c2nnc3ccc(-c4ccc(COCCN5CC6CC6C5)nc4)cc3c21 (centres unmarked) [Example 1, 8-(6-((2-(3-azabicyclo[3.1.0]hexan-3-yl)ethoxy)methyl)pyridin-3-yl)-1-isopropyl-3-methyl-1H-imidazo[4,5-c]cinnolin-2(3H)-one]
[1]
  IC50: 16 nM
[2]; [11]
  IC50: 40 nM
[3]; [12]
  Inhibition (% TGI) Combo: 76.8 ± 2.72 % TGI
[3]; [13]
  Inhibition (% TGI) Combo: 92.0 ± 1.31 % TGI

## CC(C)n1c(=O)n(C)c2nnc3ccc(-c4ccc(COCCN5CCC(F)CC5)nc4)cc3c21 [Example 5, 8-(6-((2-(4-fluropiperidin-1-yl)ethoxy)methyl)pyridin-3-yl)-1-isopropyl-3-methyl-1H-imidazo[4,5-c]cinnolin-2(3H)-one]
[1]
  IC50: 14 nM
[2]; [14]
  IC50: 27 nM
[4]; [15]
  IC50: 130 nM
[3]; [12]
  Inhibition (% TGI) Combo: 79.6 ± 2.78 % TGI
[3]; [13]
  Inhibition (% TGI) Combo: 91.9 ± 1.16 % TGI

## CC(C)n1c(=O)n(C)c2nnc3ccc(-c4ccc(COCCN5CCC(C)(C)C5)nc4)cc3c21 [Example 36, 8-(6-((2-(3,3-dimethylpyrrolidin-1-yl)ethoxy)methyl)pyridin-3-yl)-1-isopropyl-3-methyl-1H-imidazo[4,5-c]cinnolin-2(3H)-one]
[1]
  IC50: 4.7 nM
[2]; [11]
  IC50: 20 nM
[4]; [15]
  IC50: 20 nM

## CO[C@H]1CCN(CCOCc2ccc(-c3ccc4nnc5c(c4c3)n(C(C)C)c(=O)n5C)cn2)C1 [Example 43, (S)-1-isopropyl-8-(6-((2-(3-methoxypyrrolidin-1-yl)ethoxy)methyl)pyridin-3-yl)-3-methyl-1H-imidazo[4,5-c]cinnolin-2(3H)-one]
[1]
  IC50: 12 nM
[4]; [15]
  IC50: 92 nM

## CC(C)n1c(=O)n(C)c2nnc3ccc(-c4ccc([C@@H](C)OCCN5CCC6(CC6)C5)nc4)cc3c21 [Example 53, (R)-8-(6-(1-(2-(5-azaspiro[2.4]heptan-5-yl)ethoxy)ethyl)pyridin-3-yl)-1-isopropyl-3-methyl-1H-imidazo[4,5-c]cinnolin-2(3H)-one]
[1]
  IC50: 4.2 nM
[5]
  IC50: > 10000 nM
[2]; [14]
  IC50: 9 nM
[4]; [15]
  IC50: 11 nM
[6]
  IC50: > 10000 nM
[7]
  IC50: > 10000 nM
[8]
  IC50: > 10000 nM
[9]
  IC50: > 10000 nM
[10]
  IC50: > 10000 nM

## CO[C@@H]1CCN(CCO[C@H](C)c2ccc(-c3ccc4nnc5c(c4c3)n(C(C)C)c(=O)n5C)cn2)C1 [Example 57, 1-isopropyl-8-(6-((R)-1-(2-((R)-3-methoxypyrrolidin-1-yl)ethoxy)ethyl)pyridin-3-yl)-3-methyl-1H-imidazo[4,5-c]cinnolin-2(3H)-one]
[1]
  IC50: 4.2 nM
[2]; [14]
  IC50: 20 nM
[4]; [15]
  IC50: 19 nM

## CC(C)n1c(=O)n(C)c2nnc3ccc(-c4ccc([C@@H](C)OCCN5CCCC5)nc4)cc3c21 [Example 62, (R)-1-isopropyl-3-methyl-8-(6-(1-(2-(pyrrolidin-1-yl)ethoxy)ethyl)pyridin-3-yl)-1,3-dihydro-2H-imidazo[4,5-c]cinnolin-2-one]
[1]
  IC50: 7.8 nM
[5]
  IC50: > 10000 nM
[4]
  IC50: 21 nM
[3]; oral compound in combination with IR (2 Gy per day, 5 days per cycle)
  tumor response in FaDu xenograft efficacy study: tumor xenograft regression was observed and tumors did not relapse until the end of the study
[3]; total IR 30 Gy (3 cycles), 45 mg/kg PO. BID
  Inhibition (% TGI) Combo: 98.7 ± 0.51 % TGI
[3]; total IR 60 Gy (6 cycles), 10 mg/kg PO. BID
  Inhibition (% TGI) Combo: 80.4 ± 2.20 % TGI
[3]; total IR 60 Gy (6 cycles), 30 mg/kg PO. BID
  Inhibition (% TGI) Combo: 93.6 ± 1.33 % TGI
[6]; read-out: mTor IC50
  IC50: > 10000 nM

## CC(C)n1c(=O)n(C)c2nnc3ccc(-c4ccc([C@@H](C)OCCN5CCC(F)CC5)nc4)cc3c21 [Example 69, (R)-8-(6-(1-(2-(4-fluoropiperidin-1-yl)ethoxy)ethyl)pyridin-3-yl)-1-isopropyl-3-methyl-1H-imidazo[4,5-c]cinnolin-2(3H)-one]
[1]
  IC50: 5.2 nM
[2]; [14]
  IC50: 34 nM
[4]; [15]
  IC50: 47 nM

## CC(C)n1c(=O)n(C)c2nnc3ccc(-c4ccc([C@@H](C)OCCN5CCC(C)(C)CC5)nc4)cc3c21 [Example 73, (R)-8-(6-(1-(2-(4,4-dimethylpiperidin-1-yl)ethoxy)ethyl)pyridin-3-yl)-1-isopropyl-3-methyl-1H-imidazo[4,5-c]cinnolin-2(3H)-one]
[1]
  IC50: 3.5 nM
[2]; [11]
  IC50: 9.1 nM
[4]; [15]
  IC50: 9.1 nM

## C[C@@H](OCCN1CCC2(CC1)CC2)c1ccc(-c2ccc3nnc4c(c3c2)n(C2CCOCC2)c(=O)n4C)cn1 [Example 107, (R)-8-(6-(1-(2-(6-azaspiro[2.5]octan-6-yl)ethoxy)ethyl)pyridin-3-yl)-3-methyl-1-(tetrahydro-2H-pyran-4-yl)-1H-imidazo[4,5-c]cinnolin-2(3H)-one]
[5]
  IC50: > 10000 nM
[2]; [11]
  IC50: 12 nM
[6]; read-out: mTor IC50
  IC50: > 10000 nM

## CO[C@@H]1CCN(CCO[C@H](C)c2ccc(-c3ccc4nnc5c(c4c3)n(C3CCOCC3)c(=O)n5C)cn2)C1 [Example 112, 8-(6-((R)-1-(2-((R)-3-methoxypyrrolidin-1-yl)ethoxy)ethyl)pyridin-3-yl)-3-methyl-1-(tetrahydro-2H-pyran-4-yl)-1H-imidazo[4,5-c]cinnolin-2(3H)-one]
[1]
  IC50: 7.8 nM
[5]
  IC50: > 10000 nM
[2]; [14]
  IC50: 20 nM
[4]
  IC50: 18 nM
[3]; total IR 40 Gy (4 cycles), 30 mg/kg PO. BID
  Inhibition (% TGI) Combo: 77.3 ± 1.67 % TGI
[3]; total IR 40 Gy (4 cycles), 60 mg/kg PO. BID
  Inhibition (% TGI) Combo: 79.6 ± 4.20 % TGI
[3]; total IR 40 Gy (4 cycles), 100 mg/kg PO. BID
  Inhibition (% TGI) Combo: 82.9 ± 1.77 % TGI
[6]; read-out: mTor IC50
  IC50: > 10000 nM

## CO[C@H]1C[C@@H](n2c(=O)n(C)c3nnc4ccc(-c5ccc(COCCN6CC7CC7C6)nc5)cc4c32)C1 (stereo partly drawn) [Example 175, 8-(6-((2-(3-azabicyclo[3.1.0]hexan-3-yl)ethoxy)methyl)pyridin-3-yl)-1-(cis-3-methoxycyclobutyl)-3-methyl-1H-imidazo[4,5-c]cinnolin-2(3H)-one]
[1]
  IC50: 25 nM
[2]; [14]
  IC50: 33 nM
[4]; [15]
  IC50: 170 nM

## CC(C)n1c(=O)n(C)c2nnc3cc(F)c(-c4ccc(COCCN5CCC(F)CC5)nc4)cc3c21 [Ref compd 1, 7-fluoro-8-(6-((2-(4-fluoropiperidin-1-yl)ethoxy)methyl)pyridin-3-yl)-1-isopropyl-3-methyl-1H-imidazo[4,5-c]cinnolin-2(3H)-one, reference compound]
[1]
  IC50: 25 nM
[4]; [15]
  IC50: 273 nM
